From patent US12024510B2, “Pyrazolopyridine-diamides, their use as insecticide and processes for preparing the same” (PI INDUSTRIES LTD., priority 2017, dated 2024)

Assays:
Assay type in all cases: in vivo
Spodoptera litura = Spodoptera litura diet incorporation method; conditions: third instar larvae, dead and moribund combined, 96 h after release
In short: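 Compound milled to <2 μm average particle size in surfactant, dispersed in water (500 ppm stock dispersion), then mixed into semi-synthetic diet at ~50° C. One starved third-instar larva per diet cell, 25° C, 70% RH; percent mortality (dead plus moribund) scored at 96 h.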

Helicoverpa armigera = Helicoverpa armigera diet incorporation method; conditions: third instar larvae, dead and moribund combined, 96 h after release
In short: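 500 ppm stock of compound milled with surfactant and zirconia beads to average particle size below 2 μm, dispersed in DM water, diluted as needed, and mixed into semi-synthetic diet at about 50° C. Single starved third-instar larvae per cell, held at 25° C., 70% RH; dead plus moribund larvae scored as percent mortality at 96 h.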

Plutella xylostella = test: whole plant or invertebrate; conditions: foliar, cabbage leaf dip, second instar larvae, dead and moribund combined, 72 h after release
In short: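 Compounds milled with zirconia beads into surfactant dispersion (500 ppm stock), diluted in 0.01% Triton-X. Cabbage leaves dipped 10 s, shade-dried 20 min; one second-instar larva per cell, 25 °C, 70% RH. Mortality (dead plus moribund) scored at 72 h.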

Measured: mortality at 300 ppm

COc1cc(C(=O)Nc2c(C)cc3ccnn3c2C(=O)NCC#N)n(-c2ncccc2Cl)n1 [Compound 40, 6-(1-(3-chloropyridin-2-yl)-3-methoxy-1H-pyrazole-5-carboxamido)-N-(cyanomethyl)-5-methylpyrazolo[1,5-a]pyridine-7-carboxamide]
> 70%: all assays above

COc1cc(C(=O)Nc2c(C)cc3ccnn3c2C(=O)NCCC#N)n(-c2ncccc2Cl)n1 [Compound 41, 6-(1-(3-chloropyridin-2-yl)-3-methoxy-1H-pyrazole-5-carboxamido)-N-(2-cyanoethyl)-5-methylpyrazolo[1,5-a]pyridine-7-carboxamide]
> 70%: all assays above

CONC(=O)c1c(NC(=O)c2cc(OC)nn2-c2ncccc2Cl)c(C)cc2ccnn12 [Compound 42, 6-(1-(3-chloropyridin-2-yl)-3-methoxy-1H-pyrazole-5-carboxamido)-N-methoxy-5-methylpyrazolo[1,5-a]pyridine-7-carboxamide]
> 70%: all assays above

C=CCNC(=O)c1c(NC(=O)c2cc(OC)nn2-c2ncccc2Cl)c(C)cc2ccnn12 [Compound 44, N-allyl-6-(1-(3-chloropyridin-2-yl)-3-methoxy-1H-pyrazole-5-carboxamido)-5-methylpyrazolo[1,5-a]pyridine-7-carboxamide]
> 70%: all assays above

C#CCNC(=O)c1c(NC(=O)c2cc(OC)nn2-c2ncccc2Cl)c(C)cc2ccnn12 [Compound 45, 6-(1-(3-chloropyridin-2-yl)-3-methoxy-1H-pyrazole-5-carboxamido)-5-methyl-N-(prop-2-yn-1-yl)pyrazolo[1,5-a]pyridine-7-carboxamide]
> 70%: all assays above

COc1cc(C(=O)Nc2c(C)cc3ccnn3c2C(=O)NC2COC2)n(-c2ncccc2Cl)n1 [Compound 46, 6-(1-(3-chloropyridin-2-yl)-3-methoxy-1H-pyrazole-5-carboxamido)-5-methyl-N-(oxetan-3-yl)pyrazolo[1,5-a]pyridine-7-carboxamide]
> 70%: all assays above

CCCNC(=O)c1c(NC(=O)c2cc(Br)nn2-c2ncccc2Cl)c(Br)cc2ccnn12 [Compound 50, 5-bromo-6-(3-bromo-1-(3-chloropyridin-2-yl)-1H-pyrazole-5-carboxamido)-N-propylpyrazolo[1,5-a]pyridine-7-carboxamide]
> 70%: all assays above

CNC(=O)c1c(NC(=O)c2cc(Br)nn2-c2ncccc2Cl)c(Br)cc2ccnn12 [Compound 51, 5-bromo-6-(3-bromo-1-(3-chloropyridin-2-yl)-1H-pyrazole-5-carboxamido)-N-methylpyrazolo[1,5-a]pyridine-7-carboxamide]
> 70%: all assays above

O=C(Nc1c(Br)cc2ccnn2c1C(=O)NC1CC1)c1cc(Br)nn1-c1ncccc1Cl [Compound 52, 5-bromo-6-(3-bromo-1-(3-chloropyridin-2-yl)-1H-pyrazole-5-carboxamido)-N-cyclopropylpyrazolo[1,5-a]pyridine-7-carboxamide]
> 70%: all assays above

CC(C)(C)NC(=O)c1c(NC(=O)c2cc(Br)nn2-c2ncccc2Cl)c(Br)cc2ccnn12 [Compound 53, 5-bromo-6-(3-bromo-1-(3-chloropyridin-2-yl)-1H-pyrazole-5-carboxamido)-N-(tert-butyl)pyrazolo[1,5-a]pyridine-7-carboxamide]
> 70%: all assays above
